Measured values reported in patent US20190358369A1, “Drug releasing coatings for medical devices and methods of making same” (BIOTRONIK AG, priority 2016, published 2019).
Like-named read-outs stand apart in the source and are kept apart here. Blank lines part the entries; values can stand above or below the molecule they belong to.

Experiments:
[1] = biological target: bovine serum albumin (BSA) (Bos taurus, UniProt P02769); experiment: Albumin binding by ammonium sulfate precipitation and LCMS; type: in vitro ADME; conditions: bovine serum albumin (BSA) solution, 10 uM drug, 1.4 mg/mL BSA in normal saline, 30 minutes ambient, supernatant, average of four separate days
Protocol: Sirolimus-albumin binding has previously been reported. […] The drug spiked BSA solutions were mixed by inversion and allowed to equilibrate at ambient temperature for 30 minutes to allow drug binding to the albumin protein. 826 mg ammonium sulfate was next added to each sample and mixed by gentle inversion until the salt had completely dissolved and precipitate formed. Samples were then vortexed for 20 seconds then centrifuged for 6.5 minutes at 7200×g. To both supernatant and separated precipitate 0.750 mL methanol and 0.250 mL acetonitrile containing internal standard was added to each sample. Samples were tested for drug content by LCMS where the supernatant amount represents unbound drug and the precipitate amount the bound drug. Recovery verifiction tests were performed as above but using solutions of saline plus drug without BSA.
Values reported are the average of a separate test on each of four separate days.

[2] = Porcine Coronary Arteries, from US 2014/0046254, cited from earlier work

Sequence of bovine serum albumin (BSA) (P02769 25-607): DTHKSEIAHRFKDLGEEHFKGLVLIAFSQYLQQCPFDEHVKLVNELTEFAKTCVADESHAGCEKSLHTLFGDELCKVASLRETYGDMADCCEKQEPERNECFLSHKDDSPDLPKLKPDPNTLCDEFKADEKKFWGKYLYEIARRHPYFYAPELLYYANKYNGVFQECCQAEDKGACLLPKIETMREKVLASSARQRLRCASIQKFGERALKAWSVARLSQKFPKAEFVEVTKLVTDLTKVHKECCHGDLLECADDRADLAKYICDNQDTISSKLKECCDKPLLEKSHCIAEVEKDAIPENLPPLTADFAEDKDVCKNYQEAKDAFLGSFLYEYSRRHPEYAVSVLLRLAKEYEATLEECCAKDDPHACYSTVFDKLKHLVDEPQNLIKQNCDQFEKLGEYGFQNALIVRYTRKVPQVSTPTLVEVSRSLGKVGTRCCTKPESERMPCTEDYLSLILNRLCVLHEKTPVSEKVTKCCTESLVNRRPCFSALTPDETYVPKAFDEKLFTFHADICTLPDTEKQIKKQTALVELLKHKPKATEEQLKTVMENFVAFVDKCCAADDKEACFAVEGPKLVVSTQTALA

fraction unbound at 30 min, 10 uM [1]: 0.062
Compound: CO[C@H]1C[C@@H]2CC[C@@H](C)[C@@](O)(O2)C(=O)C(=O)N2CCCC[C@H]2C(=O)O[C@H]([C@H](C)C[C@@H]2CC[C@@H](O)[C@H](OC)C2)CC(=O)[C@H](C)/C=C(\C)[C@@H](O)[C@@H](OC)C(=O)[C@H](C)C[C@H](C)/C=C/C=C/C=C/1C [Sirolimus]

Compound: CO[C@H]1C[C@@H]2CC[C@@H](C)[C@@](O)(O2)C(=O)C(=O)N2CCCC[C@H]2C(=O)O[C@H]([C@H](C)C[C@@H]2CC[C@@H](OCCO)[C@H](OC)C2)CC(=O)[C@H](C)/C=C(\C)[C@@H](O)[C@@H](OC)C(=O)[C@H](C)C[C@H](C)/C=C/C=C/C=C/1C [US 2014/0046254 Everolimus, Everolimus]
Normalized Uptake (ng drug/mg tissue/μg drug on balloon) ([2]; 3 days): 0.02 ng/mg/µg

Compound: CO[C@H]1C[C@@H]2CC[C@@H](C)[C@@](O)(O2)C(=O)C(=O)N2CCCC[C@H]2C(=O)O[C@H]([C@H](C)C[C@@H]2CC[C@H](n3cnnn3)[C@H](OC)C2)CC(=O)[C@H](C)/C=C(\C)[C@@H](O)[C@@H](OC)C(=O)[C@H](C)C[C@H](C)/C=C/C=C/C=C/1C [US 2014/0046254 Zotarolimus, Zotarolimus]
Normalized Uptake (ng drug/mg tissue/μg drug on balloon) ([2]; 7 days): 0.04 ng/mg/µg
